Laboratory results published in patent US11440822B2, “Methods and uses of dissolved organic material fractions for binding metal ions” (priority 2016, dated 2022).

Test system: Scenedesmus obliquus
Experiment: Toxicity of Cd to Scenedesmus obliquus cultures
Assay type: cell-based
Conditions: Cd(NO3)2
Experimental: Laboratory grown cultures of Scenedesmus obliquus were obtained from the Canadian Phycological Culture Center (CPCC) in Waterloo, Ontario. The cells were grown using a bold basal media (BBM) at standard light regimes (16:8 h light to dark) fixed light intensity of 90-100 μmol photons […] and fixed temperature of 21° C. constantly aerated in a growth chamber.
Four algal cultures were grown in the presence of varying levels of Cd: control (0 μL^−1 Cd); EC20 (19.5 μL^−1Cd); EC30 (46.4 μL^−1 Cd) and EC40 (78.8 μL^−1 Cd) starting at 1 million cells per mL for Replicate 1 and 2 million cells per mL for Replicate 2. The cells were harvested in early stationary phase for further analysis.

O=[N+]([O-])[O-].O=[N+]([O-])[O-].[Cd+2] [Cd, Cd(NO3)2]
toxicity of Cd, EC20: 19.5 μL^−1Cd | toxicity of Cd, EC30: 46.4 μL^−1 Cd | toxicity of Cd, EC40: 78.8 μL^−1 Cd
